In patent US20240010987A1, “IN VITRO LIVER DISEASE MODEL USING TRIPLE CO-CULTURE AND PREPARATION METHOD THEREOF” (FUTURE MEDICINE CO., LTD., priority 2020, published 2024):

What was measured:
[1] = tested on: HuH-7:LX-2:ImKC triple co-culture; experiment: Marker changes in triple co-culture in vitro liver disease model (steatosis, inflammation, fibrosis) after drug treatment; format: cell-based, human (HuH-7, mouse (ImKC); settings: hepatic steatosis (FFA), inflammation (FFA+LPS) or fibrosis (FFA+TGF-β1) induced; FIGS. 5 to 14
Method: After the cells were fixed for 1 hour for direct co-culture, a 0.4 μm pore size cell culture insert (Corning™) was positioned on top of a direct co-culture dish for indirect co-culture of the corresponding cells with an immortalized mouse Kupffer cell line (ImKC). The cell suspensions of the immortalized mouse Kupffer cell line (ImKC) were added to the positioned cell culture insert (Corning™) such that the number of cells per area was 15,000 cells/cm^2, and the cells were cultured in a CO2 incubator (Thermo Scientific™) under 37° C. and 5% CO2 conditions for 24 hours (FIG. 1).
The cell culture dishes for each experimental group shown in the following Table 3, which was cultured for 24 hours in a CO2 incubator (Thermo Scientific™) under 37° C. and 5% CO2 conditions at 24 hours before FFA treatment, were taken out, the cell culture medium was carefully discarded, and a co-culture medium including 1,000 μM FFA (oleic:palmitic molar ratio 2:1) was added thereto. After FFA treatment, the cell culture dishes were incubated in a CO2 incubator (Thermo Scientific™) under 37° C. and 5% CO2 conditions for 144 hours. The co-culture medium including FFA was replaced at 48 and 96 hours after FFA treatment (FIG. 4).
The cell culture dishes for each experimental group shown in Table 3, which was cultured in a CO2 incubator (Thermo Scientific™) under 37° C. and 5% CO2 conditions at 72 and 96 hours before LPS treatment, were taken out, the cell culture medium was carefully discarded, and a culture medium including 0.5 ng/ml LPS was added to 1,000 μM FFA (oleic:palmitic molar ratio 2:1). After LPS treatment, the cell culture dishes were incubated in a CO2 incubator (Thermo Scientific™) under 37° C. and 5% CO2 conditions for 48 and 72 hours. […]
The absorbance of each cell culture treated with FM101 and the control material was measured in the same manner as in Experimental Example 3-1.
The absorbance of each cell culture treated with FM101 and the control material was measured in the same manner as in Experimental Example 3-2. […]

[2] = tested on: A3 adenosine receptor; settings: in vivo experiments, EXCLI J. 2020 Feb. 12; 19:187-200; cited from earlier work

**Q.** For `OC1CSC(n2cnc3c(NCc4cccc(Cl)c4)nc(Cl)nc32)C1O` (stereo not shown) [FM101], which “responsiveness of markers in triple co-culture cells on drug treatment, compared to directly co-cultured cells” value [1] is on record?
**A.** The value was “higher responsiveness and more concentration-dependent responsiveness”.

**Q.** And the “modulation of A3 adenosine receptor as A3AR ligand” value [2]?
**A.** The value was “modulates an A3 adenosine receptor”.

**Q.** With `CC(C)c1cc(Oc2c(Cl)cc(-n3nc(C#N)c(=O)[nH]c3=O)cc2Cl)n[nH]c1=O` [MGL-3196, Resmetirom] as the compound, how does the “responsiveness of markers in triple co-culture cells on drug treatment, compared to directly co-cultured cells” value [1] read?
**A.** The value was “higher responsiveness and more concentration-dependent responsiveness”.

**Q.** For `CNC(=O)[C@H]1O[C@@H](n2cnc3c(NCc4cccc(I)c4)nc(Cl)nc32)[C@H](O)[C@@H]1O` [CF102, Namodenoson], which “responsiveness of markers in triple co-culture cells on drug treatment, compared to directly co-cultured cells” value [1] is on record?
**A.** Its value is “higher responsiveness and more concentration-dependent responsiveness”.
